Patent US6926763B2, “Purine and isosteric antibacterial compounds” (GLSynthesis, Inc., priority 2002, dated 2005)
Values after ≈ are worked out from the molar mass of the structure shown.

Columns and labels:
Enterococcus fecium = experiment: Inhibition of bacterial growth (agar plate MIC), E. fecium; type: cell-based; conditions: Enterococcus; agar plates, 37° C., 24 hours
Description: (§1) Antimicrobial efficacy may be determined by standard methods of microbial culture in growth medium or on plates of agar supplemented with appropriate growth media. For example, microbes, e.g., mycoplasmata or Gram-positive or Gram-negative bacteria, are grown in the presence of serial dilutions of compounds in an appropriate vehicle, and, after a suitable period of growth, the microbial density is measured by visual or instrumental means. The concentration of compound at which no growth occurs is the minimum inhibitory concentration (MIC) of the compound. Test compounds with an appropriate level of growth inhibition are good candidate therapeutics for further evaluation.
(§2) Each compound was assayed against a panel of Gram-positive Bacilli, Enterococci, and Staphylococci, and Gram-negative Escherichia coli, grown in appropriate plate media solidified with 1.3% agar-agar. […] One tenth mL of diluted bacteria containing 500-1000 colony-forming units (CFU) were plated and spread, and the plates were incubated at 37° C. for 24 hours. MIC (minimum inhibitory concentration) was equivalent to the lowest concentration at which growth, i.e. colony formation, was not observed.

in vitro = in vitro ADME; conditions: human, Caco-2
Excerpt: Table 2 summarizes the results of cell membrane permeability assays of representative compounds of the invention. The assay utilizes CaCo2 cell culture monolayers, described by Artursson and Kalsson, Biochem. Biophys. Res.

B.s. pol IIIE = B.s. pol IIIE (Bacillus subtilis, UniProt O34623); experiment: biochemical; type: biochemical
Description: (§3) The ability of a test compound to inhibit the activity of DNA pol IIIC or pol IIIE enzymes can be tested by using a DNA polymerase assay as described, for example, in Barnes and Brown, Nucl. […] This rapid screening method can use natural or recombinant DNA pol III enzymes in a standard DNA polymerase activity assay. By including a test compound in a side-by-side assay with a control, the effect of the test compound on polymerase activity can be assessed.
(§4) DNA pol III activity was assayed as described in Barnes et al., Nucl.
(§5) Purified pol IIIC or pol IIIE was added to a buffered solution containing Mg^2+, DTT, glycerol, nicked calf thymus DNA, saturating concentrations of dATP, dCTP, dTTP and [^3H]-dTTP. Reaction mixtures were incubated at 30° C. for 10 min, quenched and filtered, and radioactivity in the acid-insoluble material measured by scintillation counting. Experiments were done in triplicate. Inhibitors were assayed by addition of several dilutions of a stock solution of inhibitor (DMSO or water, depending on solubility) before enzyme addition. […] The truncated assay, i.e., exclusion of the competitive substrate dGTP allows for the direct determination of apparent inhibitor constants (Ki) in this assay system.

B.s. pol IIIC = B.s. pol IIIC (Bacillus subtilis, UniProt P13267); experiment: biochemical; type: biochemical
Description: as §3, §4, §5

Enterococcus fecalis = experiment: Inhibition of bacterial growth (agar plate MIC), E. fecalis; type: cell-based; conditions: Enterococcus; agar plates, 37° C., 24 hours
Description: as §1, §2

E.c. pol IIIE = E.c. pol IIIE (Escherichia coli, UniProt P10443); experiment: biochemical
Description: as §3, §4, §5

MRSA (B42876) = experiment: Inhibition of bacterial growth (agar plate MIC), MRSA (B42876); type: cell-based, methicillin-resistant S.a.; conditions: Staphylococcus aureus, MRSA; agar plates, 37° C., 24 hours
Description: as §1, §2

Bacillus subtilis = experiment: Inhibition of bacterial growth (agar plate MIC), B.s.; type: cell-based; conditions: Bacillus subtilis; agar plates, 37° C., 24 hours
Description: as §1, §2

Chain of B.s. pol IIIE (O34623 whole entry): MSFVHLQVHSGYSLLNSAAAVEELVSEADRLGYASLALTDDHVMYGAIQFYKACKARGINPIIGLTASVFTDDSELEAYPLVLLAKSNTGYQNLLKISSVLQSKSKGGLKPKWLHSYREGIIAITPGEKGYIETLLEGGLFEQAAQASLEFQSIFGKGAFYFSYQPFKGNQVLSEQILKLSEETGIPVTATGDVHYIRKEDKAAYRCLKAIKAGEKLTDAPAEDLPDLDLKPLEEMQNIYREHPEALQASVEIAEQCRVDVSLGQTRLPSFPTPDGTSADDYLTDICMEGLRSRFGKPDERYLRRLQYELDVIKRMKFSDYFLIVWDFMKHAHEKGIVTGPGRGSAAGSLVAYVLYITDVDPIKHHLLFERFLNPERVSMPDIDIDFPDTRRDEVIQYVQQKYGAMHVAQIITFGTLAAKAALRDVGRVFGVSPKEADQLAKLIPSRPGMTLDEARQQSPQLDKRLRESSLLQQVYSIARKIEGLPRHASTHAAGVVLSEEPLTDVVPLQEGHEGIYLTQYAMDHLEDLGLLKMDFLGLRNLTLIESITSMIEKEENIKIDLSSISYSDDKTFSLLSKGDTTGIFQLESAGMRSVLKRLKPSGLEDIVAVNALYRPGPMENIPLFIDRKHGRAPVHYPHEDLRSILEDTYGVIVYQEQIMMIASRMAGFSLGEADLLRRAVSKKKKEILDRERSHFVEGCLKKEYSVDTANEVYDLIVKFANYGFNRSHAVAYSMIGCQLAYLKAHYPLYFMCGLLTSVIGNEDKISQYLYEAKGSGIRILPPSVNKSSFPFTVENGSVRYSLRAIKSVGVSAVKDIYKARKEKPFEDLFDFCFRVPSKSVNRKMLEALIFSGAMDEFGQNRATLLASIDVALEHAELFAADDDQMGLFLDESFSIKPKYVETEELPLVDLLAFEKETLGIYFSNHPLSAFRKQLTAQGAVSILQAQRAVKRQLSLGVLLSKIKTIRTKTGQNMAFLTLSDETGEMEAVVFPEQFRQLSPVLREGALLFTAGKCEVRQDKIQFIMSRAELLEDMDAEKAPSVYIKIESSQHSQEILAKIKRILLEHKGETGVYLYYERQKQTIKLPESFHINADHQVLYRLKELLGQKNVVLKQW
Chain of B.s. pol IIIC (P13267 whole entry): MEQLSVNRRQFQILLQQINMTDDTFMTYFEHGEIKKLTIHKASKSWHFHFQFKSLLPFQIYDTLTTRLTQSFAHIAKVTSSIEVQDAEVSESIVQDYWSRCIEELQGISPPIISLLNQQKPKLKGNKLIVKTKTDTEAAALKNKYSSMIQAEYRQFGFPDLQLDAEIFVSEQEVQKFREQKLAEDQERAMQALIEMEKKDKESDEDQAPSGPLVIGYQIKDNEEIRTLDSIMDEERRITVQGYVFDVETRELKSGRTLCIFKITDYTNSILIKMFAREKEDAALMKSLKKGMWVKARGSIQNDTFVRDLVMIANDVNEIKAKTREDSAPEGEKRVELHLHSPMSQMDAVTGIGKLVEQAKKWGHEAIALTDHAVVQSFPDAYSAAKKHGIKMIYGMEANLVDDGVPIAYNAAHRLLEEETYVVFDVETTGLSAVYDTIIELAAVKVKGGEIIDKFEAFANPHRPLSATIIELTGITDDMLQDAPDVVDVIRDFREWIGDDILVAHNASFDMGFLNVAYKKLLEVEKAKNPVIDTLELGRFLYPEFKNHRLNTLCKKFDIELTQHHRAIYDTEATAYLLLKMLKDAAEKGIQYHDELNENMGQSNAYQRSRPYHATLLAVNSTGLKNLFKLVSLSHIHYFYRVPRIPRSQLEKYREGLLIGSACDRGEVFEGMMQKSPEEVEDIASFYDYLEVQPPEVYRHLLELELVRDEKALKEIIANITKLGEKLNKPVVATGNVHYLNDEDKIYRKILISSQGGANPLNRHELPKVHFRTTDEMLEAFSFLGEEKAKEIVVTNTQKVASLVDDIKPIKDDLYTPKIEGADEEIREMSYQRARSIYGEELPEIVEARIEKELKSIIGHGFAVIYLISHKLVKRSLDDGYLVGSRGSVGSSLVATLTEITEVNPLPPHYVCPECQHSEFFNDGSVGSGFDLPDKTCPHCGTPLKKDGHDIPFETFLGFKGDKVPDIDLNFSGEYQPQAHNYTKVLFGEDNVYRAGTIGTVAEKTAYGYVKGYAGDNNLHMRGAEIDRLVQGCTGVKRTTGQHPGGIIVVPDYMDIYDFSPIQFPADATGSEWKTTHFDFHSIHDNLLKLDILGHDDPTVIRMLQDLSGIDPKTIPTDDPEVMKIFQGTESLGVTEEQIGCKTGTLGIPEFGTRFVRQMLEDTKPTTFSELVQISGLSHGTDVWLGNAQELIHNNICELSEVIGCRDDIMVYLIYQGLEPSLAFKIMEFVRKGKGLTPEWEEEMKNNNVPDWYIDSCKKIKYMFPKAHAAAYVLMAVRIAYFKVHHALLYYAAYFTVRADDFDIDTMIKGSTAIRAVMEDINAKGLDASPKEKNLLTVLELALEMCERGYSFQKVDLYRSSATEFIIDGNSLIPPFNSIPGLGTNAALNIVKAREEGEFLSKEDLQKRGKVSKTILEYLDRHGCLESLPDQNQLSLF
Chain of E.c. pol IIIE (P10443 whole entry): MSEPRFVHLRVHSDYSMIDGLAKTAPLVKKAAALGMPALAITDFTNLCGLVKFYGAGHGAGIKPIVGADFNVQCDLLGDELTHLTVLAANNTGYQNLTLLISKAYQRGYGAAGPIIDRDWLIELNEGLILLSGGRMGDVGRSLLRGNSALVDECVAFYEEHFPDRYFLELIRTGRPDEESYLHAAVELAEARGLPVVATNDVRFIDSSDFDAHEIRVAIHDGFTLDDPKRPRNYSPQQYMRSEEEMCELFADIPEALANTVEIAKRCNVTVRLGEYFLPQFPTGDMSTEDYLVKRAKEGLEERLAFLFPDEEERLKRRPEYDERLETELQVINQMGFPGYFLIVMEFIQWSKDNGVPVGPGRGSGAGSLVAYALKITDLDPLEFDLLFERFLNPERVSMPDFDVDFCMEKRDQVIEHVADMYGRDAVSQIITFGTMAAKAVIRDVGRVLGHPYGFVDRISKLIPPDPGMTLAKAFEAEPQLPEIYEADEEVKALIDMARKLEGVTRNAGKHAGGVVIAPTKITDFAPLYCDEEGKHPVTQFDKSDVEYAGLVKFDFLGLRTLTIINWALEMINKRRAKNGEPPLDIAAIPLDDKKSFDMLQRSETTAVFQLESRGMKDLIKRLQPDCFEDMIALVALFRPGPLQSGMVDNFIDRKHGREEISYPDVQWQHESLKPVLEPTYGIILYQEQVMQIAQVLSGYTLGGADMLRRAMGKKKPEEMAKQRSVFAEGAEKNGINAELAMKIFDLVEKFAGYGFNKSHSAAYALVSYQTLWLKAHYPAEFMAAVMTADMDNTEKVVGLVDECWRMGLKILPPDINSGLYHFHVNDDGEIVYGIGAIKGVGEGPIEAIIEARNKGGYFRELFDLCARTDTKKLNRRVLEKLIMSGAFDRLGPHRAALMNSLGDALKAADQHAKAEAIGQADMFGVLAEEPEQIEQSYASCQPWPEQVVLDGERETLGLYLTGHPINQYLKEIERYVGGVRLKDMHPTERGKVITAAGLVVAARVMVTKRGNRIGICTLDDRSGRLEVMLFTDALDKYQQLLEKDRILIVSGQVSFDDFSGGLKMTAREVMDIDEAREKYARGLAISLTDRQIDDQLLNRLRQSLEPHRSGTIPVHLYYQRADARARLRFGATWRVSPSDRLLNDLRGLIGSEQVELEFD

| Compound | MIC (Enterococcus fecium) | Papp (in vitro) | Ki (B.s. pol IIIE) | Ki (B.s. pol IIIC) | MIC (Enterococcus fecalis) | Ki (E.c. pol IIIE) | MIC (MRSA (B42876)) | MIC (Bacillus subtilis) | Ki, E.c. pol IIIE (E.c. pol IIIE; truncated assay without dGTP, apparent Ki) |
| --- | --- | --- | --- | --- | --- | --- | --- | --- | --- |
| COCCCCCn1cnc2cc(NCc3ccc(Cl)c(Cl)c3)[nH]c(=O)c21 [Compound 3, 2-(3,4-Dichlorobenzylamino)-6-oxo-7-(5-methoxypentyl)-3-deazapurine] | 1.25 µg/mL (≈ 3.05 µM) | 13.8 ×10⁻⁶ cm/s | 0.42 µM | 160 nM | 5 µg/mL (≈ 12.2 µM) | 81 µM | 2.5 µg/mL (≈ 6.11 µM) | – | – |
| CCc1cc(Nc2cc3ncn(CCCCCOC)c3c(=O)[nH]2)ccc1C [Compound 17, 2-(3-Ethyl-4-methylphenylamino)-6-oxo-7-(5-methoxypentyl)-3-deazapurine] | 2.5 µg/mL (≈ 6.78 µM) | 39.6 ×10⁻⁶ cm/s | 490 µM | 690 nM | > 80 µg/mL | – | 2.5 µg/mL (≈ 6.78 µM) | 1.25 µg/mL (≈ 3.39 µM) | inact |
